The NIST ThermoML archive (doi:10.1021/je100377k)
± gives the expanded uncertainty stated by the source.

Details: 101.33 kPa, Liquid

| Compound | mass density (278.15 K) [kg/m3] | viscosity (278.15 K) [mPa·s] | mass density (283.15 K) [kg/m3] | viscosity (283.15 K) [mPa·s] | mass density (288.15 K) [kg/m3] | mass density (293.15 K) [kg/m3] | mass density (298.15 K) [kg/m3] | mass density (303.15 K) [kg/m3] | mass density (308.15 K) [kg/m3] | mass density (313.15 K) [kg/m3] | mass density (318.15 K) [kg/m3] | mass density (323.15 K) [kg/m3] | mass density (328.15 K) [kg/m3] | mass density (333.15 K) [kg/m3] | mass density (338.15 K) [kg/m3] | mass density (343.15 K) [kg/m3] | mass density (348.15 K) [kg/m3] | mass density (353.15 K) [kg/m3] | mass density (358.15 K) [kg/m3] | mass density (363.15 K) [kg/m3] | other results |
| --- | --- | --- | --- | --- | --- | --- | --- | --- | --- | --- | --- | --- | --- | --- | --- | --- | --- | --- | --- | --- | --- |
| CCC[n+]1cccc(C)c1.O=S(=O)([N-]S(=O)(=O)C(F)(F)F)C(F)(F)F | 1467.1 ± 1.9 | 159.86 ± 10 | 1462.3 ± 1.9 | 117.81 ± 5.5 | 1457.5 ± 1.8 | 1452.8 ± 1.8 | 1447.5 ± 1.8 | 1442.8 ± 1.8 | 1438.1 ± 1.8 | 1433.4 ± 1.8 | 1428.8 ± 1.8 | 1424.1 ± 1.8 | 1419.5 ± 1.8 | 1414.9 ± 1.8 | 1410.3 ± 1.7 | 1405.7 ± 1.7 | 1401.1 ± 1.7 | 1396.6 ± 1.7 | 1392.1 ± 1.7 | 1387.7 ± 1.7 | viscosity (288.15 K): 89.22 ± 2.9 mPa·s; viscosity (293.15 K): 69.11 ± 1.3 mPa·s; viscosity (298.15 K): 54.94 ± 0.55 mPa·s; viscosity (303.15 K): 44.22 ± 0.64 mPa·s; viscosity (308.15 K): 36.15 ± 0.53 mPa·s; viscosity (313.15 K): 29.98 ± 0.44 mPa·s; viscosity (318.15 K): 25.2 ± 0.37 mPa·s; viscosity (323.15 K): 21.43 ± 0.32 mPa·s; viscosity (328.15 K): 18.41 ± 0.27 mPa·s; viscosity (333.15 K): 15.97 ± 0.24 mPa·s; viscosity (338.15 K): 13.97 ± 0.21 mPa·s; viscosity (343.15 K): 12.31 ± 0.19 mPa·s; viscosity (348.15 K): 10.93 ± 0.17 mPa·s; viscosity (353.15 K): 9.769 ± 0.15 mPa·s; viscosity (358.15 K): 8.782 ± 0.14 mPa·s; viscosity (363.15 K): 7.937 ± 0.12 mPa·s |
| CCCC[n+]1cccc(C)c1.O=S(=O)([N-]S(=O)(=O)C(F)(F)F)C(F)(F)F | 1431.2 ± 1.8 | – | 1426.6 ± 1.8 | – | 1421.9 ± 1.8 | 1417.4 ± 1.8 | 1412.8 ± 1.7 | 1408.2 ± 1.7 | 1403.6 ± 1.7 | 1399 ± 1.7 | 1394.5 ± 1.7 | 1389.9 ± 1.7 | 1385.4 ± 1.7 | 1380.9 ± 1.7 | 1376.4 ± 1.7 | 1371.9 ± 1.7 | 1367.4 ± 1.7 | 1362.9 ± 1.6 | 1358.5 ± 1.6 | 1354.1 ± 1.6 | viscosity (278.15 K, Capillary tube (Ostwald / Ubbelohde) method): 195.43 ± 4.6 mPa·s; viscosity (283.15 K, Capillary tube (Ostwald / Ubbelohde) method): 142.73 ± 2.7 mPa·s; viscosity (288.15 K, Capillary tube (Ostwald / Ubbelohde) method): 107.15 ± 1.6 mPa·s; viscosity (293.15 K, Capillary tube (Ostwald / Ubbelohde) method): 82.19 ± 0.97 mPa·s; viscosity (298.15 K, Capillary tube (Ostwald / Ubbelohde) method): 64.36 ± 0.62 mPa·s; viscosity (303.15 K, Capillary tube (Ostwald / Ubbelohde) method): 51.39 ± 0.45 mPa·s; viscosity (308.15 K, Capillary tube (Ostwald / Ubbelohde) method): 41.64 ± 0.4 mPa·s; viscosity (313.15 K, Capillary tube (Ostwald / Ubbelohde) method): 34.26 ± 0.33 mPa·s; viscosity (318.15 K, Capillary tube (Ostwald / Ubbelohde) method): 28.57 ± 0.27 mPa·s; viscosity (323.15 K, Capillary tube (Ostwald / Ubbelohde) method): 24.1 ± 0.23 mPa·s; viscosity (328.15 K, Capillary tube (Ostwald / Ubbelohde) method): 20.57 ± 0.2 mPa·s; viscosity (333.15 K, Capillary tube (Ostwald / Ubbelohde) method): 17.71 ± 0.17 mPa·s; viscosity (338.15 K, Capillary tube (Ostwald / Ubbelohde) method): 15.38 ± 0.15 mPa·s; viscosity (343.15 K, Capillary tube (Ostwald / Ubbelohde) method): 13.47 ± 0.13 mPa·s; viscosity (348.15 K, Capillary tube (Ostwald / Ubbelohde) method): 11.9 ± 0.11 mPa·s; viscosity (353.15 K, Capillary tube (Ostwald / Ubbelohde) method): 10.56 ± 0.1 mPa·s; viscosity (358.15 K, Capillary tube (Ostwald / Ubbelohde) method): 9.44 ± 0.091 mPa·s; viscosity (363.15 K, Capillary tube (Ostwald / Ubbelohde) method): 8.484 ± 0.082 mPa·s |
| CCCCCCCC[n+]1cccc(C)c1 [1-octyl-3-methylpyridinium] | 1347.2 ± 1.6 | 398.72 ± 45 | 1342.7 ± 1.6 | 281.38 ± 26 | 1338.2 ± 1.6 | 1333.8 ± 1.6 | 1329.5 ± 1.6 | 1325.2 ± 1.6 | 1320.9 ± 1.6 | 1316.6 ± 1.5 | 1312.3 ± 1.5 | 1308 ± 1.5 | 1303.7 ± 1.5 | 1299.5 ± 1.5 | 1295.2 ± 1.5 | 1290.9 ± 1.5 | 1286.7 ± 1.5 | 1282.5 ± 1.5 | 1278.3 ± 1.5 | 1274.1 ± 1.5 | viscosity (288.15 K): 204.35 ± 16 mPa·s; viscosity (293.15 K): 151.98 ± 9.2 mPa·s; viscosity (298.15 K): 115.55 ± 5.3 mPa·s; viscosity (303.15 K): 89.6 ± 2.9 mPa·s; viscosity (308.15 K): 70.72 ± 1.4 mPa·s; viscosity (313.15 K): 56.77 ± 0.62 mPa·s; viscosity (318.15 K): 46.23 ± 0.67 mPa·s; viscosity (323.15 K): 38.14 ± 0.56 mPa·s; viscosity (328.15 K): 31.86 ± 0.47 mPa·s; viscosity (333.15 K): 26.91 ± 0.4 mPa·s; viscosity (338.15 K): 22.95 ± 0.34 mPa·s; viscosity (343.15 K): 19.77 ± 0.29 mPa·s; viscosity (348.15 K): 17.16 ± 0.26 mPa·s; viscosity (353.15 K): 15.02 ± 0.23 mPa·s; viscosity (358.15 K): 13.23 ± 0.2 mPa·s; viscosity (363.15 K): 11.74 ± 0.18 mPa·s |
| CCCC[n+]1ccc(C)cc1.O=S(=O)([N-]S(=O)(=O)C(F)(F)F)C(F)(F)F | 1431 ± 1.8 | 169.9 ± 11 | 1426.3 ± 1.8 | 124.19 ± 6.2 | 1421.6 ± 1.8 | 1416.9 ± 1.8 | 1412.2 ± 1.7 | 1407.6 ± 1.7 | 1402.9 ± 1.7 | 1398.3 ± 1.7 | 1393.6 ± 1.7 | 1389 ± 1.7 | 1384.4 ± 1.7 | 1379.8 ± 1.7 | 1375.3 ± 1.7 | 1370.7 ± 1.7 | 1366.2 ± 1.7 | 1361.7 ± 1.6 | 1357.2 ± 1.6 | 1352.7 ± 1.6 | viscosity (288.15 K): 93.27 ± 3.2 mPa·s; viscosity (293.15 K): 71.72 ± 1.5 mPa·s; viscosity (298.15 K): 56.33 ± 0.6 mPa·s; viscosity (303.15 K): 45.07 ± 0.66 mPa·s; viscosity (308.15 K): 36.67 ± 0.54 mPa·s; viscosity (313.15 K): 30.28 ± 0.44 mPa·s; viscosity (318.15 K): 25.34 ± 0.37 mPa·s; viscosity (323.15 K): 21.45 ± 0.32 mPa·s; viscosity (328.15 K): 18.36 ± 0.27 mPa·s; viscosity (333.15 K): 15.87 ± 0.24 mPa·s; viscosity (338.15 K): 13.82 ± 0.21 mPa·s; viscosity (343.15 K): 12.13 ± 0.18 mPa·s; viscosity (348.15 K): 10.72 ± 0.16 mPa·s; viscosity (353.15 K): 9.54 ± 0.15 mPa·s; viscosity (358.15 K): 8.531 ± 0.13 mPa·s; viscosity (363.15 K): 7.673 ± 0.12 mPa·s |
| CCCCCC[n+]1ccccc1.O=S(=O)([N-]S(=O)(=O)C(F)(F)F)C(F)(F)F [1-hexylpyridinium bis(trifluromethylsulfonyl)imide] | 1412.5 ± 1.7 | 322.08 ± 32 | 1407.8 ± 1.7 | 229.05 ± 19 | 1403.2 ± 1.7 | 1398.7 ± 1.7 | 1394.2 ± 1.7 | 1389.7 ± 1.7 | 1385.2 ± 1.7 | 1380.7 ± 1.7 | 1376.3 ± 1.7 | 1371.8 ± 1.7 | 1367.3 ± 1.7 | 1362.9 ± 1.6 | 1358.5 ± 1.6 | 1354 ± 1.6 | 1349.6 ± 1.6 | 1345.3 ± 1.6 | 1340.9 ± 1.6 | 1336.6 ± 1.6 | viscosity (288.15 K): 167.56 ± 11 mPa·s; viscosity (293.15 K): 125.56 ± 6.3 mPa·s; viscosity (298.15 K): 96.21 ± 3.5 mPa·s; viscosity (303.15 K): 75.22 ± 1.7 mPa·s; viscosity (308.15 K): 59.86 ± 0.75 mPa·s; viscosity (313.15 K): 48.42 ± 0.7 mPa·s; viscosity (318.15 K): 39.74 ± 0.58 mPa·s; viscosity (323.15 K): 33.04 ± 0.48 mPa·s; viscosity (328.15 K): 27.79 ± 0.41 mPa·s; viscosity (333.15 K): 23.64 ± 0.35 mPa·s; viscosity (338.15 K): 20.3 ± 0.3 mPa·s; viscosity (343.15 K): 17.58 ± 0.26 mPa·s; viscosity (348.15 K): 15.35 ± 0.23 mPa·s; viscosity (353.15 K): 13.51 ± 0.2 mPa·s; viscosity (358.15 K): 11.96 ± 0.18 mPa·s; viscosity (363.15 K): 10.66 ± 0.16 mPa·s |
| CCCC[n+]1ccccc1.O=S(=O)([N-]S(=O)(=O)C(F)(F)F)C(F)(F)F [1-butylpyridinium bis[(trifluoromethyl)sulfonyl]imide] | 1467.6 ± 1.9 | 181.81 ± 13 | 1462.8 ± 1.9 | 133.34 ± 7.1 | 1458.1 ± 1.8 | 1453.4 ± 1.8 | 1448.7 ± 1.8 | 1444 ± 1.8 | 1439.3 ± 1.8 | 1434.6 ± 1.8 | 1430 ± 1.8 | 1425.4 ± 1.8 | 1420.7 ± 1.8 | 1416.1 ± 1.8 | 1411.6 ± 1.7 | 1407 ± 1.7 | 1402.5 ± 1.7 | 1398 ± 1.7 | 1393.5 ± 1.7 | 1389 ± 1.7 | viscosity (288.15 K): 100.65 ± 3.9 mPa·s; viscosity (293.15 K): 77.72 ± 1.9 mPa·s; viscosity (298.15 K): 61.25 ± 0.82 mPa·s; viscosity (303.15 K): 49.15 ± 0.72 mPa·s; viscosity (308.15 K): 40.09 ± 0.58 mPa·s; viscosity (313.15 K): 33.17 ± 0.49 mPa·s; viscosity (318.15 K): 27.81 ± 0.41 mPa·s; viscosity (323.15 K): 23.59 ± 0.35 mPa·s; viscosity (328.15 K): 20.23 ± 0.3 mPa·s; viscosity (333.15 K): 17.51 ± 0.26 mPa·s; viscosity (338.15 K): 15.28 ± 0.23 mPa·s; viscosity (343.15 K): 13.44 ± 0.2 mPa·s; viscosity (348.15 K): 11.91 ± 0.18 mPa·s; viscosity (353.15 K): 10.62 ± 0.16 mPa·s; viscosity (358.15 K): 9.528 ± 0.15 mPa·s; viscosity (363.15 K): 8.594 ± 0.13 mPa·s |
